Assays:
HCT-15 (colon cancer) = test: NCI 60-cell one-dose antiproliferative screen; format: cell-based, human; settings: one dose 10 μM
HS 578T (breast cancer) = test: NCI 60-cell one-dose antiproliferative screen; format: cell-based, human; settings: one dose 10 μM
TK-10 (renal cancer) = test: NCI 60-cell one-dose antiproliferative screen; format: cell-based, human; settings: one dose 10 μM
HT29 (colon cancer) = test: NCI 60-cell one-dose antiproliferative screen; format: cell-based, human; settings: one dose 10 μM
SK-MEL-28 (melanoma) = test: NCI 60-cell one-dose antiproliferative screen; format: cell-based, human; settings: one dose 10 μM
M14 (melanoma) = test: NCI 60-cell one-dose antiproliferative screen; format: cell-based, human; settings: one dose 10 μM
SNB-75 (CNS cancer) = test: NCI 60-cell one-dose antiproliferative screen; format: cell-based, human; settings: one dose 10 μM
UO-31 (renal cancer) = test: NCI 60-cell one-dose antiproliferative screen; format: cell-based, human; settings: one dose 10 μM
786-0 (renal cancer) = test: NCI 60-cell one-dose antiproliferative screen; format: cell-based, human; settings: one dose 10 μM
MCF7 (breast cancer) = test: NCI 60-cell one-dose antiproliferative screen; format: cell-based, human; settings: one dose 10 μM
MDA-MB-435 (melanoma) = test: NCI 60-cell one-dose antiproliferative screen; format: cell-based, human; settings: one dose 10 μM
SF-295 (CNS cancer) = test: NCI 60-cell one-dose antiproliferative screen; format: cell-based, human; settings: one dose 10 μM
[1] = system: NCI-H460 (NSC lung cancer); test: NCI 60-cell one-dose antiproliferative screen; format: cell-based, human; settings: one dose 10 μM
UACC-62 (melanoma) = test: NCI 60-cell one-dose antiproliferative screen; format: cell-based, human; settings: one dose 10 μM
RXF 393 (renal cancer) = test: NCI 60-cell one-dose antiproliferative screen; format: cell-based, human; settings: one dose 10 μM
HCT-116 (colon cancer) = test: NCI 60-cell one-dose antiproliferative screen; format: cell-based, human; settings: one dose 10 μM
OVCAR-3 (ovarian cancer) = test: NCI 60-cell one-dose antiproliferative screen; format: cell-based, human; settings: one dose 10 μM
U251 (CNS cancer) = test: NCI 60-cell one-dose antiproliferative screen; format: cell-based, human; settings: one dose 10 μM
IGROV1 (ovarian cancer) = test: NCI 60-cell one-dose antiproliferative screen; format: cell-based, human; settings: one dose 10 μM
DU-145 (prostate cancer) = test: NCI 60-cell one-dose antiproliferative screen; format: cell-based, human; settings: one dose 10 μM
[2] = system: NCI-H226 (NSC lung cancer); test: NCI 60-cell one-dose antiproliferative screen; format: cell-based, human; settings: one dose 10 μM
KM12 (colon cancer) = test: NCI 60-cell one-dose antiproliferative screen; format: cell-based, human; settings: one dose 10 μM
[3] = system: NCI-H522 (NSC lung cancer); test: NCI 60-cell one-dose antiproliferative screen; format: cell-based, human; settings: one dose 10 μM
HOP-92 (NSC lung cancer) = test: NCI 60-cell one-dose antiproliferative screen; format: cell-based, human; settings: one dose 10 μM
UACC-257 (melanoma) = test: NCI 60-cell one-dose antiproliferative screen; format: cell-based, human; settings: one dose 10 μM
HCC-2998 (colon cancer) = test: NCI 60-cell one-dose antiproliferative screen; format: cell-based, human; settings: one dose 10 μM
EKVX (NSC lung cancer) = test: NCI 60-cell one-dose antiproliferative screen; format: cell-based, human; settings: one dose 10 μM
[4] = system: A549/ATCC (NSC lung cancer); test: NCI 60-cell one-dose antiproliferative screen; format: cell-based, human; settings: one dose 10 μM
SK-OV-3 (ovarian cancer) = test: NCI 60-cell one-dose antiproliferative screen; format: cell-based, human; settings: one dose 10 μM
RPMI-8226 (leukemia) = test: NCI 60-cell one-dose antiproliferative screen; format: cell-based, human; settings: one dose 10 μM
SN12C (renal cancer) = test: NCI 60-cell one-dose antiproliferative screen; format: cell-based, human; settings: one dose 10 μM
COLO-205 (colon cancer) = test: NCI 60-cell one-dose antiproliferative screen; format: cell-based, human; settings: one dose 10 μM
PC-3 (prostate cancer) = test: NCI 60-cell one-dose antiproliferative screen; format: cell-based, human; settings: one dose 10 μM
OVCAR-5 (ovarian cancer) = test: NCI 60-cell one-dose antiproliferative screen; format: cell-based, human; settings: one dose 10 μM
T-47D (breast cancer) = test: NCI 60-cell one-dose antiproliferative screen; format: cell-based, human; settings: one dose 10 μM
MALME-3M (melanoma) = test: NCI 60-cell one-dose antiproliferative screen; format: cell-based, human; settings: one dose 10 μM
HOP-62 (NSC lung cancer) = test: NCI 60-cell one-dose antiproliferative screen; format: cell-based, human; settings: one dose 10 μM
[5] = system: MDA-MB-468 (breast cancer); test: NCI 60-cell one-dose antiproliferative screen; format: cell-based, human; settings: one dose 10 μM
SF-268 (CNS cancer) = test: NCI 60-cell one-dose antiproliferative screen; format: cell-based, human; settings: one dose 10 μM
CCRF-CEM (leukemia) = test: NCI 60-cell one-dose antiproliferative screen; format: cell-based, human; settings: one dose 10 μM
OVCAR-4 (ovarian cancer) = test: NCI 60-cell one-dose antiproliferative screen; format: cell-based, human; settings: one dose 10 μM
OVCAR-8 (ovarian cancer) = test: NCI 60-cell one-dose antiproliferative screen; format: cell-based, human; settings: one dose 10 μM
A498 (renal cancer) = test: NCI 60-cell one-dose antiproliferative screen; format: cell-based, human; settings: one dose 10 μM
SK-MEL-2 (melanoma) = test: NCI 60-cell one-dose antiproliferative screen; format: cell-based, human; settings: one dose 10 μM
LOX IMIV (melanoma) = test: NCI 60-cell one-dose antiproliferative screen; format: cell-based, human; settings: one dose 10 μM
[6] = system: 60 human tumor cell lines; test: NCI 60-cell one-dose antiproliferative screen, whole panel; format: cell-based; settings: Homo sapiens, 60 cell, read-out: Mean inhibition (mean GI%)
[7] = system: NCI-H23 (NSC lung cancer); test: NCI 60-cell one-dose antiproliferative screen; format: cell-based, human; settings: one dose 10 μM
SNB-19 (CNS cancer) = test: NCI 60-cell one-dose antiproliferative screen; format: cell-based, human; settings: one dose 10 μM
[8] = system: MDA-MB-231/ATCC (breast cancer); test: NCI 60-cell one-dose antiproliferative screen; format: cell-based, human; settings: one dose 10 μM
SW-620 (colon cancer) = test: NCI 60-cell one-dose antiproliferative screen; format: cell-based, human; settings: one dose 10 μM
[9] = system: NCI-H322M (NSC lung cancer); test: NCI 60-cell one-dose antiproliferative screen; format: cell-based, human; settings: one dose 10 μM
[10] = system: NCI/ADR-RES (ovarian cancer); test: NCI 60-cell one-dose antiproliferative screen; format: cell-based, human; settings: one dose 10 μM
CAKI-1 (renal cancer) = test: NCI 60-cell one-dose antiproliferative screen; format: cell-based, human; settings: one dose 10 μM
ACHN (renal cancer) = test: NCI 60-cell one-dose antiproliferative screen; format: cell-based, human; settings: one dose 10 μM
SF-539 (CNS cancer) = test: NCI 60-cell one-dose antiproliferative screen; format: cell-based, human; settings: one dose 10 μM

Cc1ccc(-c2nnc3ccc(NN=Cc4ccccc4)nn23)cc1 [Compound 4d, 6-(2-Benzylidenehydrazinyl)-3-(p-tolyl)-[1,2,4]triazolo[4,3-b]pyridazine]
GI% (HCT-15 (colon cancer)): 30.81%
GI% (HS 578T (breast cancer)): 53.45%
GI% (TK-10 (renal cancer)): — (— GI% is below 15%)
GI% (HT29 (colon cancer)): — (— GI% is below 15%)
GI% (SK-MEL-28 (melanoma)): — (— GI% is below 15%)
GI% (M14 (melanoma)): 32.66%
GI% (SNB-75 (CNS cancer)): >100%
GI% (UO-31 (renal cancer)): 15.52%
GI% (786-0 (renal cancer)): — (— GI% is below 15%)
GI% (MCF7 (breast cancer)): 52.06%
GI% (MDA-MB-435 (melanoma)): 23.87%
GI% (SF-295 (CNS cancer)): 47.66%
GI% [1]: 31.51%
GI% (UACC-62 (melanoma)): — (— GI% is below 15%)
GI% (RXF 393 (renal cancer)): — (— GI% is below 15%)
GI% (HCT-116 (colon cancer)): — (— GI% is below 15%)
GI% (OVCAR-3 (ovarian cancer)): 69.65%
GI% (U251 (CNS cancer)): 24.9%
GI% (IGROV1 (ovarian cancer)): — (— GI% is below 15%)
GI% (DU-145 (prostate cancer)): 24.06%
GI% [2]: — (— GI% is below 15%)
GI% (KM12 (colon cancer)): 42.77%
GI% [3]: — (— GI% is below 15%)
GI% (HOP-92 (NSC lung cancer)): 29.46%
GI% (UACC-257 (melanoma)): — (— GI% is below 15%)
GI% (HCC-2998 (colon cancer)): — (— GI% is below 15%)
GI% (EKVX (NSC lung cancer)): 23.07%
GI% [4]: — (— GI% is below 15%)
GI% (SK-OV-3 (ovarian cancer)): — (— GI% is below 15%)
GI% (RPMI-8226 (leukemia)): 19.37%
GI% (SN12C (renal cancer)): — (— GI% is below 15%)
GI% (COLO-205 (colon cancer)): — (— GI% is below 15%)
GI% (PC-3 (prostate cancer)): — (— GI% is below 15%)
GI% (OVCAR-5 (ovarian cancer)): — (— GI% is below 15%)
GI% (T-47D (breast cancer)): — (— GI% is below 15%)
GI% (MALME-3M (melanoma)): — (— GI% is below 15%)
GI% (HOP-62 (NSC lung cancer)): — (— GI% is below 15%)
GI% [5]: — (— GI% is below 15%)
GI% (SF-268 (CNS cancer)): 42.23%
GI% (CCRF-CEM (leukemia)): — (— GI% is below 15%)
GI% (OVCAR-4 (ovarian cancer)): 30.86%
GI% (OVCAR-8 (ovarian cancer)): — (— GI% is below 15%)
GI% (A498 (renal cancer)): — (— GI% is below 15%)
GI% (SK-MEL-2 (melanoma)): — (— GI% is below 15%)
GI% (LOX IMIV (melanoma)): 52.47%
inhibition at 10 µM [6]: 18.3%
GI% [7]: 39.55%
GI% (SNB-19 (CNS cancer)): — (— GI% is below 15%)
GI% [8]: — (— GI% is below 15%)
GI% (SW-620 (colon cancer)): — (— GI% is below 15%)
GI% [9]: — (— GI% is below 15%)
GI% [10]: 15.93%
GI% (CAKI-1 (renal cancer)): 16.69%
GI% (ACHN (renal cancer)): — (— GI% is below 15%)
GI% (SF-539 (CNS cancer)): 19.19%

COc1ccc(-c2nnc3ccc(NN=Cc4ccccc4)nn23)cc1 [Compound 4e, 6-(2-Benzylidenehydrazinyl)-3-(4-methoxyphenyl)-[1,2,4]triazolo[4,3-b]pyridazine]
GI% (HCT-15 (colon cancer)): — (— GI% is below 15%)
GI% (HS 578T (breast cancer)): 17.35%
GI% (TK-10 (renal cancer)): — (— GI% is below 15%)
GI% (HT29 (colon cancer)): — (— GI% is below 15%)
GI% (SK-MEL-28 (melanoma)): — (— GI% is below 15%)
GI% (M14 (melanoma)): — (— GI% is below 15%)
GI% (SNB-75 (CNS cancer)): 62.97%
GI% (UO-31 (renal cancer)): — (— GI% is below 15%)
GI% (786-0 (renal cancer)): — (— GI% is below 15%)
GI% (MCF7 (breast cancer)): 28.54%
GI% (MDA-MB-435 (melanoma)): — (— GI% is below 15%)
GI% (SF-295 (CNS cancer)): — (— GI% is below 15%)
GI% [1]: — (— GI% is below 15%)
GI% (UACC-62 (melanoma)): — (— GI% is below 15%)
GI% (RXF 393 (renal cancer)): — (— GI% is below 15%)
GI% (HCT-116 (colon cancer)): — (— GI% is below 15%)
GI% (OVCAR-3 (ovarian cancer)): — (— GI% is below 15%)
GI% (U251 (CNS cancer)): 22.16%
GI% (IGROV1 (ovarian cancer)): — (— GI% is below 15%)
GI% (DU-145 (prostate cancer)): — (— GI% is below 15%)
GI% [2]: 42.42%
GI% (KM12 (colon cancer)): — (— GI% is below 15%)
GI% [3]: — (— GI% is below 15%)
GI% (HOP-92 (NSC lung cancer)): 29.15%
GI% (UACC-257 (melanoma)): — (— GI% is below 15%)
GI% (HCC-2998 (colon cancer)): — (— GI% is below 15%)
GI% (EKVX (NSC lung cancer)): — (— GI% is below 15%)
GI% [4]: 21.90%
GI% (SK-OV-3 (ovarian cancer)): — (— GI% is below 15%)
GI% (RPMI-8226 (leukemia)): — (— GI% is below 15%)
GI% (SN12C (renal cancer)): — (— GI% is below 15%)
GI% (COLO-205 (colon cancer)): — (— GI% is below 15%)
GI% (PC-3 (prostate cancer)): — (— GI% is below 15%)
GI% (OVCAR-5 (ovarian cancer)): — (— GI% is below 15%)
GI% (T-47D (breast cancer)): — (— GI% is below 15%)
GI% (MALME-3M (melanoma)): — (— GI% is below 15%)
GI% (HOP-62 (NSC lung cancer)): — (— GI% is below 15%)
GI% [5]: — (— GI% is below 15%)
GI% (SF-268 (CNS cancer)): — (— GI% is below 15%)
GI% (CCRF-CEM (leukemia)): — (— GI% is below 15%)
GI% (OVCAR-4 (ovarian cancer)): — (— GI% is below 15%)
GI% (OVCAR-8 (ovarian cancer)): 34.25%
GI% (A498 (renal cancer)): — (— GI% is below 15%)
GI% (SK-MEL-2 (melanoma)): — (— GI% is below 15%)
GI% (LOX IMIV (melanoma)): 29.87%
inhibition at 10 µM [6]: 7.15%
GI% [7]: — (— GI% is below 15%)
GI% (SNB-19 (CNS cancer)): 17.10%
GI% [8]: 34.41%
GI% (SW-620 (colon cancer)): — (— GI% is below 15%)
GI% [9]: — (— GI% is below 15%)
GI% [10]: 30.10%
GI% (CAKI-1 (renal cancer)): — (— GI% is below 15%)
GI% (ACHN (renal cancer)): — (— GI% is below 15%)
GI% (SF-539 (CNS cancer)): 17.17%

Reference: article PMC11420776 (RSC Advances, 2024)
